# Reference: US20100311714A1, “1H-IMIDAZO[4,5-c]QUINOLINONE COMPOUNDS” (priority 2009, published 2010)
# Where two headings read alike, the source gives them in different places.
# Legend:
# [1] = test system: PKB Ser473 phosphorylation in Rat1-myr-HA-p110 alpha cells; test: Reverse protein array, PKB Ser473 phosphorylation in Rat1-myr-HA-p110 alpha cells; assay type: cell-based; conditions: Rattus norvegicus, 0.5 h, 30 minutes compound incubation, read-out: p-PKB/IC50_alpha
# [2] = test system: S6 Ribosomal Protein phosphorylation Ser235/236 in TSC1 null mouse embryo fibroblast (MEF) cells; test: Reverse protein array, S6 Ribosomal Protein phosphorylation in TSC1 null MEF cells; assay type: cell-based; conditions: 1 h, TSC1-/- MEFs, 60 minutes
# In short: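 Phospho-S6 (Ser235/236) was quantified by reverse protein array of cell lysates with a phospho-specific primary antibody. […]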
SMILES,IC50 [1] [nM],IC50 ([2]; read-out: p-S6 IC50) [nM],IC50 ([2]; read-out: p-S6) [nM]
"CNc1ccc(-c2ccc3ncc4c(c3c2)n(-c2ccc(NC(=O)COC)nc2C)c(=O)n4C)cn1 [Example 20.4, 2-Methoxy-N-{6-methyl-5-[3-methyl-8-(6-methylamino-pyridin-3-yl)-2-oxo-2,3-dihydro-imidazo[4,5-c]quinolin-1-yl]-pyridin-2-yl}-acetamide]",5.6,63,
"COCCN(C)c1ccc(-n2c(=O)n(C)c3cnc4ccc(-c5cncc(N)c5)cc4c32)c(C)n1 [Example 15.8, 8-(5-Amino-pyridin-3-yl)-1-{6-[(2-methoxy-ethyl)-methyl-amino]-2-methyl-pyridin-3-yl}-3-methyl-1,3-dihydro-imidazo[4,5-c]quinolin-2-one]",5.1,6,
"CCOc1ccc(-c2ccc3ncc4c(c3c2)n(-c2ccc(N(C)CCOC)nc2C)c(=O)n4C)cn1 [Example 15.3, 8-(6-Ethoxy-pyridin-3-yl)-1-{6-[(2-methoxy-ethyl)-methyl-amino]-2-methyl-pyridin-3-yl}-3-methyl-1,3-dihydro-imidazo[4,5-c]quinolin-2-one]",12.3,130,
"COCCOc1cc(-c2ccc3ncc4c(c3c2)n(-c2ccc(OC)nc2OC)c(=O)n4C)cnc1C [Example 8.9, 1-(2,6-Dimethoxy-pyridin-3-yl)-8-[5-(2-methoxy-ethoxy)-6-methyl-pyridin-3-yl]-3-methyl-1,3-dihydro-imidazo[4,5-c]quinolin-2-one]",24.9,4,
"CCOc1ccc(-c2ccc3ncc4c(c3c2)n(-c2cncc(C)c2)c(=O)n4C)cn1 [Example 17.1, 8-(6-Ethoxy-pyridin-3-yl)-3-methyl-1-(5-methyl-pyridin-3-yl)-1,3-dihydro-imidazo[4,5-c]quinolin-2-one]",53.4,29,
"COc1ccc(-n2c(=O)n(C)c3cnc4ccc(-c5cnc(N)c(C(F)(F)F)c5)cc4c32)c(OC)n1 [Example 8.1, 8-(6-Amino-5-trifluoromethyl-pyridin-3-yl)-1-(2,6-dimethoxy-pyridin-3-yl)-3-methyl-1,3-dihydro-imidazo[4,5-c]quinolin-2-one]",7.27,,1.07
"CNc1ccc(-c2ccc3ncc4c(c3c2)n(-c2ccc(N(C)CCOC)nc2C)c(=O)n4C)cn1 [Example 15.4, 1-{6-[(2-Methoxy-ethyl)-methyl-amino]-2-methyl-pyridin-3-yl}-3-methyl-8-(6-methylamino-pyridin-3-yl)-1,3-dihydro-imidazo[4,5-c]quinolin-2-one]",7.2,3,
"CCOc1ccc(-c2ccc3ncc4c(c3c2)n(-c2cccnc2OC)c(=O)n4C)cn1 [Example 1.5, 8-(6-Ethoxy-pyridin-3-yl)-1-(2-methoxy-pyridin-3-yl)-3-methyl-1,3-dihydro-imidazo[4,5-c]quinolin-2-one]",9.35,,48.6
"Cc1ccc(-n2c(=O)n(C)c3cnc4ccc(-c5cnc6c(ccn6C)c5)cc4c32)c(C)n1 [Example 14.7, 1-(2,6-Dimethyl-pyridin-3-yl)-3-methyl-8-(1-methyl-1H-pyrrolo[2,3-b]pyridin-5-yl)-1,3-dihydro-imidazo[4,5-c]quinolin-2-one]",11.5,3,
"CNc1ccc(-c2ccc3ncc4c(c3c2)n(-c2ccc(N3CCCC3)nc2C)c(=O)n4C)cn1 [Example 25.1, 3-Methyl-8-(6-methylamino-pyridin-3-yl)-1-(2-methyl-6-pyrrolidin-1-yl-pyridin-3-yl)-1,3-dihydro-imidazo[4,5-c]quinolin-2-one]",11.5,1,
"CCOc1ccc(-c2ccc3ncc4c(c3c2)n(-c2cccnc2C)c(=O)n4C)cn1 [Example 2.1, 8-(6-Ethoxy-pyridin-3-yl)-3-methyl-1-(2-methyl-pyridin-3-yl)-1,3-dihydro-imidazo[4,5-c]quinolin-2-one]",6.31,,19
"Cc1nc(F)ccc1-n1c(=O)n(C)c2cnc3ccc(-c4cnc(N)c(CO)c4)cc3c21 [Example 7.17, 8-(6-Amino-5-hydroxymethyl-pyridin-3-yl)-1-(6-fluoro-2-methyl-pyridin-3-yl)-3-methyl-1,3-dihydro-imidazo[4,5-c]quinolin-2-one]",31.1,5,
"CNc1ncc(-c2ccc3ncc4c(c3c2)n(-c2ccc(NC(=O)COC)nc2C)c(=O)n4C)cn1 [Example 20.3, 2-Methoxy-N-{6-methyl-5-[3-methyl-8-(2-methylamino-pyrimidin-5-yl)-2-oxo-2,3-dihydro-imidazo[4,5-c]quinolin-1-yl]-pyridin-2-yl}-acetamide]",6.6,44,
"COc1ccc(-n2c(=O)n(C)c3cnc4ccc(-c5cnc(N(C)C)nc5)cc4c32)c(Cl)n1 [Example 18.3, 1-(2-Chloro-6-methoxy-pyridin-3-yl)-8-(2-dimethylamino-pyrimidin-5-yl)-3-methyl-1,3-dihydro-imidazo[4,5-c]quinolin-2-one]",7.1,4.3,
"CCNc1cc(-c2ccc3ncc4c(c3c2)n(-c2ccc(OCCOC)nc2C)c(=O)n4C)cnc1C [Example 13.4, 8-(5-Ethylamino-6-methyl-pyridin-3-yl)-1-[6-(2-methoxy-ethoxy)-2-methyl-pyridin-3-yl]-3-methyl-1,3-dihydro-imidazo[4,5-c]quinolin-2-one]",< 4.57,1,
"COCCN(C)c1ccc(-n2c(=O)n(C)c3cnc4ccc(-c5cnc(N)c(C(F)(F)F)c5)cc4c32)c(C)n1 [Example 15.1, 8-(6-Amino-5-trifluoromethyl-pyridin-3-yl)-1-{6-[(2-methoxy-ethyl)-methyl-amino]-2-methyl-pyridin-3-yl}-3-methyl-1,3-dihydro-imidazo[4,5-c]quinolin-2-one]",< 4.57,1,
"COCC(=O)Nc1ccc(-n2c(=O)n(C)c3cnc4ccc(-c5cncc(N)c5)cc4c32)c(C)n1 [Example 20.1, N-{5-[8-(5-Amino-pyridin-3-yl)-3-methyl-2-oxo-2,3-dihydro-imidazo[4,5-c]quinolin-1-yl]-6-methyl-pyridin-2-yl}-2-methoxy-acetamide]",287,32,
"CCOc1cc(-c2ccc3ncc4c(c3c2)n(-c2cccnc2C)c(=O)n4C)cnc1C [Example 2.22, 8-(5-Ethoxy-6-methyl-pyridin-3-yl)-3-methyl-1-(2-methyl-pyridin-3-yl)-1,3-dihydro-imidazo[4,5-c]quinolin-2-one]",11,12,
"Cc1cc(F)ncc1-n1c(=O)n(C)c2cnc3ccc(-c4cnc(N)c(C(F)(F)F)c4)cc3c21 [Example 16.1, 8-(6-Amino-5-trifluoromethyl-pyridin-3-yl)-1-(6-fluoro-4-methyl-pyridin-3-yl)-3-methyl-1,3-dihydro-imidazo[4,5-c]quinolin-2-one]",13.3,< 0.457,
"CCOc1ccc(-c2ccc3ncc4c(c3c2)n(-c2ccc(NC(=O)COC)nc2C)c(=O)n4C)cn1 [Example 20.2, N-{5-[8-(6-Ethoxy-pyridin-3-yl)-3-methyl-2-oxo-2,3-dihydro-imidazo[4,5-c]quinolin-1-yl]-6-methyl-pyridin-2-yl}-2-methoxy-acetamide]",50,131,
"CCN(C)c1ccc(-n2c(=O)n(C)c3cnc4ccc(-c5ccc(NC)nc5)cc4c32)c(C)n1 [Example 12.1, 1-[6-(Ethyl-methyl-amino)-2-methyl-pyridin-3-yl]-3-methyl-8-(6-methylamino-pyridin-3-yl)-1,3-dihydro-imidazo[4,5-c]quinolin-2-one]",5.2,< 0.457,
"COCCOc1ccc(-n2c(=O)n(C)c3cnc4ccc(-c5cnc(COC)c(OC)c5)cc4c32)c(C)n1 [Example 22.3, 1-[6-(2-Methoxy-ethoxy)-2-methyl-pyridin-3-yl]-8-(5-methoxy-6-methoxymethyl-pyridin-3-yl)-3-methyl-1,3-dihydro-imidazo[4,5-c]quinolin-2-one]",24.2,15,
